Results as given in patent US20200237742A1, “Serdexmethylphenidate Conjugates, Compositions And Methods Of Use Thereof” (priority 2018, published 2020).

Key:
[1] = test system: recreational stimulant abusers; assay: Intravenous abuse potential study, VAS pharmacodynamic assessments; format: in vivo, human; conditions: for Median Overall Drug Liking / Median Take Drug Again: SDX Cl 30 mg, d-MPH HCl 15 mg
Excerpt: “Drug liking” score, used herein, is the score used to assess the degree that a human participant likes a drug effect at the time the question is being asked (that is, at the moment). It is scored using a 0 to 100 point bipolar visual analogue scale (VAS) anchored in the center with a neutral anchor of “neither like nor dislike” (score of 50), on the left with “strong disliking” (score of 0) and on the right with “strong liking” (score of 100).
“Euphoria” or “Feeling High” score, used herein, is the term to describe the score used to assess the degree that a human participant is high at the time the question is being asked (that is, at the moment). It is scored using a 0 to 100 point unipolar visual analogue scale (VAS) anchored on the left with “Not at All” (score of 0) and on the right with “Extremely” (score of 100).
“Take Drug Again” score, used herein, is the term to describe the score used to assess the degree that a human participant wants to take the drug again, if given the opportunity, based on his/her opinion now, i.e., at the time the question is being asked. It is scored using a 0 to 100 point unipolar visual analogue scale (VAS) anchored on the left with “Definitely Would Not” (score of 0) and on the right with “Definitely Would” (score of 100).
“Overall Drug Liking” score, used herein, is the term to describe the score used to assess the human subject's global perception of drug liking (i.e., the subjective effects over the whole course of the drug experience including any carryover effects). Subjects respond to the statement “Overall, my liking for this drug is.” The question is scored using a 0-100 point bipolar VAS anchored on the left with “Strong Disliking” (score of 0); “Neither Like nor Dislike” (score of 50) in the middle, and anchored on the right with “Strong Liking” (score of 100). This scale has the advantage of the human subject being relatively less affected or unaffected by acute study drug effects (if any) by the time of the assessment.
“Good Effects” score, used herein, is the term to describe the score used to assess the degree that a human participant is feeling good drug effects at the time the question is being asked (that is, at the moment). Subjects respond to the statement “At this moment, I can feel good drug effects.” It is scored using a 0 to 100 point unipolar visual analogue scale (VAS) anchored on the left with “Not at All” (score of 0) and on the right with “Extremely” (score of 100).
Safety assessments were performed throughout the study.

[2] = Intravenous pharmacokinetic study (KP415.A03) in recreational stimulant users; conditions: human, in vivo, iv
Experimental: A study was conducted in humans to assess the intravenous abuse potential of serdexmethylphenidate relative to unconjugated d-methylphenidate and placebo in recreational stimulant abusers. This was a Phase 1, randomized, double-blind study in which serdexmethylphenidate and d-methylphenidate were administered intravenously in recreational stimulant users with a history of non-oral abuse. In Part A of the study, subjects (Cohort 1) participated in a dose-escalation phase to determine the optimal dose of intravenous d-methylphenidate based on tolerability and abuse-related pharmacodynamic assessments. […] The doses of serdexmethylphenidate and d-methylphenidate are equivalent with respect to molar amount of d-methylphenidate. FDA-recommended abuse potential measures and blood samples were collected at different times after dosing. Safety assessments were performed throughout the study.

[3] = test system: healthy, nondependent, recreational stimulant users; assay: Oral abuse potential study, VAS pharmacodynamic assessments; conditions: for Mean Difference Any Effects Emax, B vs E / Mean Difference Bad Effects Emax, B vs E / Mean Difference Feeling Alert/Drowsy Emax, B vs E / Mean Difference Feeling High Emax, B vs E / Mean Difference Good Effects Emax, B vs E / Mean Difference Overall Drug Liking Emax, B vs E / Mean Difference Take Drug Again Emax, B vs E / Mean Difference Drug Liking Emax, B vs E: SDX Cl 240 mg vs placebo
[4] = 12 hours, SDX Cl 30 mg vs placebo
[5] = 24 hours, SDX Cl 30 mg vs placebo
[6] = Focalin XR 80 mg vs SDX Cl 120 mg
[7] = Focalin XR 80 mg vs SDX Cl 240 mg
[8] = SDX Cl 120 mg vs placebo, listed as SDX chloride
[9] = phentermine HCl 60 mg vs SDX Cl 120 mg
[10] = phentermine HCl 60 mg vs SDX Cl 240 mg
[11] = phentermine HCl 60 mg vs SDX Cl 240 mg, listed as SDX chloride

COC(=O)[C@H](c1ccccc1)[C@H]1CCCCN1C(=O)OC[n+]1cccc(C(=O)N[C@@H](CO)C(=O)O)c1.[Cl-] [serdexmethylphenidate chloride]
Mean Difference Take Drug Again, A vs C [1, 4]: 9.1 | Overall Drug Liking, Mean difference A vs C [1, 4]: 2.8 | Median Overall Drug Liking ([1]; 12 hours): 50.0 | Median Take Drug Again ([1]; 12 hours): 0.0 | Mean Difference Take Drug Again, A vs C [1, 5]: 1.4 | Overall Drug Liking, Mean difference A vs C [1, 5]: 1.2 | Median Overall Drug Liking ([1]; 24 hours): 50.0 | Median Take Drug Again ([1]; 24 hours): 0.0 | Mean Difference Take Drug Again, A vs C ([1]; Emax, SDX Cl 30 mg vs placebo): 6.0 | Overall Drug Liking, Mean difference A vs C ([1]; Emax, SDX Cl 30 mg vs placebo): 1.4 | Feeling High Emax, Mean difference A vs C ([1]; SDX Cl 30 mg vs placebo): 3.4 | Good Effects Emax, Mean difference A vs C ([1]; SDX Cl 30 mg vs placebo): 2.2 | Median Difference Drug Liking Emax, A vs C ([1]; SDX Cl 30 mg vs placebo, bipolar VAS): 0.5 | AUCinf [2]: 31.0 | AUCinf, GLSM [2]: 28.9 ng·h/mL | AUCinf, GLSM Ratio A/B [2]: 12.2% | AUClast [2]: 25.7 | AUClast, GLSM [2]: 23.8 ng·h/mL | AUClast, GLSM Ratio A/B [2]: 10.2% | Cmax [2]: 12.9 ng/mL | Cmax, GLSM [2]: 12.1 ng/mL | Cmax, GLSM Ratio A/B [2]: 20.8% | T1/2 [2]: 8.23 h | Tmax [2]: 5.93 min | Mean Difference Any Effects Emax, C vs A [3, 6]: statistically lower | Mean Difference Bad Effects Emax, C vs A [3, 6]: statistically lower | Mean Difference Feeling Alert/Drowsy Emax, C vs A [3, 6]: statistically lower | Mean Difference Feeling High Emax, C vs A [3, 6]: statistically lower | Mean Difference Good Effects Emax, C vs A [3, 6]: statistically lower | Mean Difference Overall Drug Liking Emax, C vs A [3, 6]: about 4.5 | Mean Difference Take Drug Again Emax, C vs A [3, 6]: not statistically significant | Mean Difference Overall Drug Liking Emax, C vs A ([3]; Focalin XR 80 mg vs SDX Cl 120 mg, listed as SDX chloride): not statistically significant | Mean Difference Drug Liking Emax, C vs A ([3]; Focalin XR 80 mg vs SDX Cl 120 mg, margin 10): at least 18.2 | Mean Difference Drug Liking Emax, C vs A ([3]; Focalin XR 80 mg vs SDX Cl 120 mg, margin 10, listed as SDX chloride): statistically significantly lower | Mean Difference Any Effects Emax, C vs B [3, 7]: statistically lower | Mean Difference Bad Effects Emax, C vs B [3, 7]: statistically lower | Mean Difference Feeling Alert/Drowsy Emax, C vs B [3, 7]: statistically lower | Mean Difference Feeling High Emax, C vs B [3, 7]: statistically lower | Mean Difference Good Effects Emax, C vs B [3, 7]: statistically lower | Mean Difference Overall Drug Liking Emax, C vs B [3, 7]: about 5.0 | Mean Difference Take Drug Again Emax, C vs B [3, 7]: not statistically significant | Mean Difference Overall Drug Liking Emax, C vs B ([3]; Focalin XR 80 mg vs SDX Cl 240 mg, listed as SDX chloride): not statistically significant | Mean Difference Drug Liking Emax, C vs B ([3]; Focalin XR 80 mg vs SDX Cl 240 mg, margin 10): at least 16.7 | Mean Difference Drug Liking Emax, C vs B ([3]; Focalin XR 80 mg vs SDX Cl 240 mg, margin 10, listed as SDX chloride): statistically significantly lower | Mean Difference Any Effects Emax, A vs E ([3]; SDX Cl 120 mg vs placebo): 11.0 | Mean Difference Bad Effects Emax, A vs E ([3]; SDX Cl 120 mg vs placebo): 1.3 | Mean Difference Feeling Alert/Drowsy Emax, A vs E ([3]; SDX Cl 120 mg vs placebo): 7.7 | Mean Difference Feeling High Emax, A vs E ([3]; SDX Cl 120 mg vs placebo): 10.4 | Mean Difference Good Effects Emax, A vs E ([3]; SDX Cl 120 mg vs placebo): 12.1 | Mean Difference Overall Drug Liking Emax, A vs E ([3]; SDX Cl 120 mg vs placebo): 3.8 | Mean Difference Take Drug Again Emax, A vs E ([3]; SDX Cl 120 mg vs placebo): 2.2 | Mean Difference Bad Effects Emax, A vs E [3, 8]: not statistically different | Mean Difference Feeling Alert/Drowsy Emax, A vs E [3, 8]: statistically higher | Mean Difference Good Effects Emax, A vs E [3, 8]: statistically higher | Mean Difference Overall Drug Liking Emax, A vs E [3, 8]: not statistically different | Mean Difference Take Drug Again Emax, A vs E [3, 8]: not statistically different | Mean Difference Drug Liking Emax, A vs E ([3]; SDX Cl 120 mg vs placebo, margin 11): 6.8 | Mean Difference Drug Liking Emax, A vs E ([3]; SDX Cl 120 mg vs placebo, margin 11, listed as SDX chloride): not statistically non-inferior | Drug Liking Emax, Median ([3]; SDX Cl 120 mg, bipolar VAS): 53.0 | Feeling Alert/Drowsy Emax, Median ([3]; SDX Cl 120 mg, bipolar VAS): 54.0 | Overall Drug Liking Emax, Median ([3]; SDX Cl 120 mg, bipolar VAS): 50.0 | Take Drug Again Emax, Median ([3]; SDX Cl 120 mg, bipolar VAS): 50.0 | Any Effects Emax, Median ([3]; SDX Cl 120 mg, unipolar VAS): 14.0 | Bad Effects Emax, Median ([3]; SDX Cl 120 mg, unipolar VAS): 0.0 | Feeling High Emax, Median ([3]; SDX Cl 120 mg, unipolar VAS): 7.0 | Good Effects Emax, Mean ([3]; SDX Cl 120 mg, unipolar VAS): 27.0 | Good Effects Emax, Median ([3]; SDX Cl 120 mg, unipolar VAS): 10.0 | Mean Difference Any Effects Emax, B vs E [3]: 20.5 | Mean Difference Bad Effects Emax, B vs E [3]: 8.6 | Mean Difference Feeling Alert/Drowsy Emax, B vs E [3]: 11.2 | Mean Difference Feeling High Emax, B vs E [3]: 18.8 | Mean Difference Good Effects Emax, B vs E [3]: 17.4 | Mean Difference Overall Drug Liking Emax, B vs E [3]: 3.3 | Mean Difference Take Drug Again Emax, B vs E [3]: 1.7 | Mean Difference Any Effects Emax, B vs E ([3]; listed as SDX chloride): statistically higher | Mean Difference Bad Effects Emax, B vs E ([3]; listed as SDX chloride): statistically higher | Mean Difference Feeling Alert/Drowsy Emax, B vs E ([3]; listed as SDX chloride): statistically higher | Mean Difference Feeling High Emax, B vs E ([3]; listed as SDX chloride): statistically higher | Mean Difference Good Effects Emax, B vs E ([3]; listed as SDX chloride): statistically higher | Mean Difference Overall Drug Liking Emax, B vs E ([3]; listed as SDX chloride): not statistically different | Mean Difference Take Drug Again Emax, B vs E ([3]; listed as SDX chloride): not statistically different | Mean Difference Drug Liking Emax, B vs E ([3]; margin 11): 8.3 | Mean Difference Drug Liking Emax, B vs E ([3]; margin 11, listed as SDX chloride): not statistically non-inferior | Mean Difference Any Effects Emax, D vs A [3, 9]: statistically lower | Mean Difference Bad Effects Emax, D vs A [3, 9]: statistically lower | Mean Difference Feeling Alert/Drowsy Emax, D vs A [3, 9]: statistically lower | Mean Difference Feeling High Emax, D vs A [3, 9]: statistically lower | Mean Difference Good Effects Emax, D vs A [3, 9]: statistically lower | Mean Difference Overall Drug Liking Emax, D vs A [3, 9]: about 14.9 | Mean Difference Take Drug Again Emax, D vs A [3, 9]: statistically lower | Mean Difference Overall Drug Liking Emax, D vs A ([3]; phentermine HCl 60 mg vs SDX Cl 120 mg, listed as SDX chloride): statistically lower | Mean Difference Drug Liking Emax, D vs A ([3]; phentermine HCl 60 mg vs SDX Cl 120 mg, margin 10): at least 15.5 | Mean Difference Drug Liking Emax, D vs A ([3]; phentermine HCl 60 mg vs SDX Cl 120 mg, margin 10, listed as SDX chloride): statistically significantly lower | Mean Difference Any Effects Emax, D vs B [3, 10]: statistically lower | Mean Difference Bad Effects Emax, D vs B [3, 10]: statistically similar | Mean Difference Feeling Alert/Drowsy Emax, D vs B [3, 10]: statistically lower | Mean Difference Feeling High Emax, D vs B [3, 10]: statistically lower | Mean Difference Good Effects Emax, D vs B [3, 10]: statistically lower | Mean Difference Overall Drug Liking Emax, D vs B [3, 10]: about 15.3 | Mean Difference Take Drug Again Emax, D vs B [3, 10]: 15.4 | Mean Difference Overall Drug Liking Emax, D vs B [3, 11]: statistically lower | Mean Difference Take Drug Again Emax, D vs B [3, 11]: statistically lower | Mean Difference Drug Liking Emax, D vs B ([3]; phentermine HCl 60 mg vs SDX Cl 240 mg, margin 10): at least 14.0 | Mean Difference Drug Liking Emax, D vs B ([3]; phentermine HCl 60 mg vs SDX Cl 240 mg, margin 10, listed as SDX chloride): not statistically greater than 10 points
